Test results from ChEMBL document CHEMBL1201862, “PubChem BioAssay data set” (2004).
Calls of active or inactive are those of the source.

How the values were obtained:
Albumin = Albumin (Bos taurus, UniProt P02769); experiment: Counterscreen for inhibitors of T-cell receptor (TCR)-CD3 interaction: Fluorescence-based biochemical high throughput dose response assay to identify inhibitors of T-cell receptor (TCR)-CD3 interaction using a TAMRA-labeled BSA probe.; assay type: functional
[1] = OVCAR8 cell viability loss – plate reader, dry powder samples, PAX8 project, dose response (AID 743197); assay type: functional, cell-based; settings: OVCAR-8
Paired box protein Pax-8 = Paired box protein Pax-8 (Homo sapiens, UniProt Q06710); experiment: PAX8 transcriptional activity inhibition in RMG-I – RMG-I cells, luciferase, cherry-pick, dose response (AID 687027); assay type: functional, cell-based;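 further: luciferase reporter driven by Pax8 target thyroperoxidase promoter measured by SteadyGlo luminescence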
[2] = alpha-synuclein stem-loop luciferase translation blockers – H4 neuroglioma cells, luminescence, confirmation (AID 1988); assay type: functional, cell-based
cells [3] = assay type: functional, cell-based
H9c2 = experiment: cells; assay type: functional, cell-based; settings: Rattus norvegicus, H9c2, Myocardium;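 further: confirmatory concentration-response retest of ultra-high-throughput screening hits for modulation of myocardial damage; cell death induced by hydrogen peroxide oxidative stress; compound pretreatment for 60 min then peroxide exposure for 2 h; potency is for protecting the cells against peroxide damage rather than for killing them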
cells [4] = assay type: functional, cell-based; remark: listed apart in the source
[5] = NIH-3T3 fibroblast cytotoxicity, dose response, cytotoxicity control, cell-based, fluorescence, Alamar Blue, secondary assay (AID 2327); assay type: functional;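 further: NIH-3T3 mouse fibroblasts cultured with fluconazole at 8 µg/mL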
[6] = Trypanosoma cruzi growth suppression in host cells – NIH3T3 host cells, beta-gal luminescence, confirmation (AID 2044); assay type: functional, cell-based;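 further: intracellular parasites grown in NIH/3T3 mouse fibroblasts as host cells; luminescent beta-galactosidase reporter signal from transgenic T. cruzi replicating inside host cells; inhibitors lower the luminescence signal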
[7] = Luminescence Cell-Based Dose Response HTS to Identify Inhibitors of 5'UTR Stem-Loop Driven Prion Protein mRNA Translation in H4 Neuroglioblastoma Cells. [Related pubchem assays: 1827 (Project Summary), 1813 (Primary HTS)]; assay type: functional
[8] = luciferase reporter signal suppression in cells – H4 neuroglioma cells, luminescence, dose response (AID 1990); assay type: functional, cell-based
[9] = NIH3T3 cell viability loss – ATP luminescence, mouse fibroblasts, counter-screen, dose response (AID 2010); assay type: functional, cell-based;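 further: cells exposed to compound for about 90 hours before reading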
[10] = fluconazole-exposed Candida albicans growth modulators – fluorescence, retest, confirmation (AID 2467); assay type: functional, cell-based
[11] = viability loss in HeLa cells – cytotoxicity control for MgcRacGAP inhibitor project, dose response (AID 624300); assay type: functional
[12] = biological target: T1, Rac GTPase-activating protein 1 (Homo sapiens, UniProt Q9H0H5); experiment: blockers of MgcRacGAP-driven Rac1 GTP hydrolysis – biochemical, ADP Hunter fluorescence, primary and confirmatory, confirmation (AID 624330); assay type: functional
T1 sequence (Q9H0H5 whole entry): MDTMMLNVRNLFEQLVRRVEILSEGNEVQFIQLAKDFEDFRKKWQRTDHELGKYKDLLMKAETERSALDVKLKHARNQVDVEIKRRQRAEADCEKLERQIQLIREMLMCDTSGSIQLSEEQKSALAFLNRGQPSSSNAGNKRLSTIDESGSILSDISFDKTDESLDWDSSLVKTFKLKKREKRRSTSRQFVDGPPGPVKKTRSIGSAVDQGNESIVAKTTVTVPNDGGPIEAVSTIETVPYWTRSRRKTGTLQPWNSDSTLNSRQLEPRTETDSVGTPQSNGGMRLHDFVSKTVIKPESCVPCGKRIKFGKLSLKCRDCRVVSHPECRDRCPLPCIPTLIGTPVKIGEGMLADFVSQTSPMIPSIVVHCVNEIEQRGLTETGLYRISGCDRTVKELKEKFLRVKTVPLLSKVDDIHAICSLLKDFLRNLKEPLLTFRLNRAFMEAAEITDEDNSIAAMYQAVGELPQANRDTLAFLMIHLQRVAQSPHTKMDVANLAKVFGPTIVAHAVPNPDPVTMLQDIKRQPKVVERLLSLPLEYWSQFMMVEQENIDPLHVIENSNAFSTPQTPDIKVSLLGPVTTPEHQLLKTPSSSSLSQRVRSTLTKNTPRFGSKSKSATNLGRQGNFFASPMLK

[13] = blockers of bursicon-stimulated LGR2 cAMP reporter – cell-based, HEK293, CRE-luciferase reporter, cherry pick, set 2, dose response (AID 743343); assay type: functional;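 further: transfected cells were stimulated with diluted bursicon conditioned medium after compound addition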
[14] = blockade of melanocortin 4 receptor signaling – cell-based, plate reader, cherry pick, counter-screen for LGR2 antagonist project, dose response (AID 743444); assay type: functional;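 further: transfected HEK 293 cells stimulated with alpha-MSH peptide; potency of inhibitors of the alpha-MSH evoked signal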
[15] = viability loss in HEK293 cells – cell-based, plate reader, cherry-picked samples, cytotoxicity control, dose response (AID 743446); assay type: functional
[16] = A549 cell cytotoxicity, dose response, cytotoxicity control, plate reader, cherry-pick, antagonist series (AID 743412); assay type: functional, cell-based
[17] = toxicity toward HepG2 liver cells – cell-based, plate reader, cherry-pick, antagonist series, cytotoxicity control, dose response (AID 743416); assay type: functional
[18] = biological target: T2, Heat shock factor protein 1 (Mus musculus, UniProt P38532); experiment: enhancement of HSF1-driven luciferase signal – cell-based, NIH3T3, luminescence, dose retest, confirmation (AID 435004); assay type: functional;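 further: stress induced by proteasome inhibitor MG132 added 30 min after compound; luciferase reporter driven by HSF1 response element in NIH3T3 cells; actives raise luminescence as potentiators of the MG132 stress response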
T2 sequence (P38532 whole entry): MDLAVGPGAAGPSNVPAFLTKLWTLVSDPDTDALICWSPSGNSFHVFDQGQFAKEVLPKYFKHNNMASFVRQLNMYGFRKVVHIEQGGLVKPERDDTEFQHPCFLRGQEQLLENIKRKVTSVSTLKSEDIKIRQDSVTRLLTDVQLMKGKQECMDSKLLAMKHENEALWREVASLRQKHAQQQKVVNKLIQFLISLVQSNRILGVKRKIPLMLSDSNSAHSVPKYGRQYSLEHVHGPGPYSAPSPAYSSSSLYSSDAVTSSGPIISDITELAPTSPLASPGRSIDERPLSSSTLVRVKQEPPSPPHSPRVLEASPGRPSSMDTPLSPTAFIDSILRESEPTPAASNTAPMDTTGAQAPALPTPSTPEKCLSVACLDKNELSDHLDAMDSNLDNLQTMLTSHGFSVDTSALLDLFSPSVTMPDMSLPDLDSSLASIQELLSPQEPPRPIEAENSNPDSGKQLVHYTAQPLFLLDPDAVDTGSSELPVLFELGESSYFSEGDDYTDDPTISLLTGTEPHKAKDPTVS

[19] = biological target: T3, Methionyl-tRNA synthetase, putative (Trypanosoma brucei brucei, UniProt Q38C91); assay type: functional, Trypanosoma brucei brucei strain 927/4 GUTat10.1
T3 sequence (Q38C91 whole entry): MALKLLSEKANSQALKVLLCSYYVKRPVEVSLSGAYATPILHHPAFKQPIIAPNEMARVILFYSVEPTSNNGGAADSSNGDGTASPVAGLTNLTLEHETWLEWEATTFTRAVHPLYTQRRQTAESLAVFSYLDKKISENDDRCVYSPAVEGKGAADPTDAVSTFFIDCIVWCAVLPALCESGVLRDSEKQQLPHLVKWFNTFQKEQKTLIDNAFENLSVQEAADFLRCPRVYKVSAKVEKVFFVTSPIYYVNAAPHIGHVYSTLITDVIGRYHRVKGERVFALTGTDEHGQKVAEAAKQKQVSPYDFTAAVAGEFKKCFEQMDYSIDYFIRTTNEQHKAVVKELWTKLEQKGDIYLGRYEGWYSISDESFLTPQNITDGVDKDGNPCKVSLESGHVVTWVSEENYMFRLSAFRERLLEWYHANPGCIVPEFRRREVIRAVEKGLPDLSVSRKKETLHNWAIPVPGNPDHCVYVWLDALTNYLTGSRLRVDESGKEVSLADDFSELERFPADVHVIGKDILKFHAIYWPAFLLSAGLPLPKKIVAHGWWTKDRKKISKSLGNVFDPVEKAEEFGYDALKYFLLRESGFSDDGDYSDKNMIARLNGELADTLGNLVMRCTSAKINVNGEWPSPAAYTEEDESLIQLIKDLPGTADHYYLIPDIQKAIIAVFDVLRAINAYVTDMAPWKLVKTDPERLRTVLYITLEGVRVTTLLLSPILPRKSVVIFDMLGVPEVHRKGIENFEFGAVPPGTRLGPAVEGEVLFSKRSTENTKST

[20] = Counterscreen for inhibitors of Trypanosoma brucei methionyl tRNA synthetase (MetRS): Luminescence-based cell-based high throughput dose response assay to identify compounds that are cytotoxic to Jurkat human T lymphocyte cells.; assay type: functional
[21] = biological target: T3, Methionyl-tRNA synthetase, putative; assay type: functional, Trypanosoma brucei brucei strain 927/4 GUTat10.1; remark: listed apart in the source
[22] = biological target: T4, Oxysterols receptor LXR-beta (Homo sapiens, UniProt P55055); assay type: functional, cell-based;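 further: Cell-based luminescence dose-response assay of agonist activity at LXR, run as a confirmatory counterscreen to a daf-12 agonist screen; HEK293 cells with Gal4-LXR fusion and GAL4-driven luciferase reporter; agonist potency from rising luciferase signal of a Gal4-LXR reporter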
T4 sequence (P55055 whole entry): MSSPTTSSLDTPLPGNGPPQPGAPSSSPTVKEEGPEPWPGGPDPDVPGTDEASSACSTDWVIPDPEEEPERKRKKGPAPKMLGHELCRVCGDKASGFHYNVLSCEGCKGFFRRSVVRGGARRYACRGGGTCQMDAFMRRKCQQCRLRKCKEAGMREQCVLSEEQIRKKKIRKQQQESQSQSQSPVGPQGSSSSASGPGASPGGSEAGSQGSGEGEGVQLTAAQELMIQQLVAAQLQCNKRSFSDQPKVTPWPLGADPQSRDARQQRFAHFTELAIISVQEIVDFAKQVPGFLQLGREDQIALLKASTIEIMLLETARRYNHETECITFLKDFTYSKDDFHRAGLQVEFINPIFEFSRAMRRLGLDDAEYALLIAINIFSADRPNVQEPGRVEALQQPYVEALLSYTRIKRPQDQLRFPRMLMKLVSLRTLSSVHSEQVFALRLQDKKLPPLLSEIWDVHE

cells [23] = experiment: cells
[24] = system: Streptococcus sp. 'group A'; experiment: Streptococcus pyogenes SK(-)GAS viability under kanamycin – luminescence, BacTiterGlo, confirmation, counter-screen for streptokinase expression inhibitor project, dose response (AID 1900); assay type: functional, organism-based
[25] = M. tuberculosis H37Rv growth inhibitors, H37Rv strain (AID 1626); assay type: functional
Streptokinase A = biological target: T5, Streptokinase A (Streptococcus pyogenes serotype M1, UniProt P10520); experiment: viability-normalized secreted streptokinase activity reduction – plasminogen activation absorbance, OD405, dose response (AID 1914); assay type: functional, Streptococcus pyogenes M1 GAS;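 further: secreted streptokinase activity via plasminogen activation per viability signal from cell pellet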
T5 sequence (P10520 whole entry): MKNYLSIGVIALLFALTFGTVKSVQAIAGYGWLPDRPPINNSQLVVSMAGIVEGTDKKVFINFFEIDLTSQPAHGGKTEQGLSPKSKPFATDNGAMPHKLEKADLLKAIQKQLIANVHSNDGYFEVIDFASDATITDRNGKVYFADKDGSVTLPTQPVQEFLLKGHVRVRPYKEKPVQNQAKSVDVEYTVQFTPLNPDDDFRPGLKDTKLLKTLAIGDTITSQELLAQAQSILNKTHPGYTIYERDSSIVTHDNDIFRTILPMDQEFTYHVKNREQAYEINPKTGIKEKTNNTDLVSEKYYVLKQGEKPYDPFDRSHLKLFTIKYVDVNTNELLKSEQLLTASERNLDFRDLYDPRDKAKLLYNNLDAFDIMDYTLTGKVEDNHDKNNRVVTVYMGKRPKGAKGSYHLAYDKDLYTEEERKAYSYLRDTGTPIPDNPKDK

Streptococcus = experiment: GAS UMAA2166 growth inhibition – luminescence, BacTiterGlo, counter-screen for streptokinase expression inhibitor project, dose response (AID 1915); assay type: functional, organism-based;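 further: potency for reduction of bacterial viability or growth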
[26] = viability loss in HepG2 hepatoma cells – cell-based, ATP luminescence, cherry-pick, activator set 2, cytotoxicity control, dose response (AID 1053143); assay type: functional
[27] = Luminescence Cell-Based Dose Response HTS to Identify Activators of Luciferase Translation or Activity in H4 […] Cells. [Related pubchem assays: 1829 (Project Summary), 1814 (Primary HTS)]; assay type: functional

Chain of Albumin (P02769 whole entry): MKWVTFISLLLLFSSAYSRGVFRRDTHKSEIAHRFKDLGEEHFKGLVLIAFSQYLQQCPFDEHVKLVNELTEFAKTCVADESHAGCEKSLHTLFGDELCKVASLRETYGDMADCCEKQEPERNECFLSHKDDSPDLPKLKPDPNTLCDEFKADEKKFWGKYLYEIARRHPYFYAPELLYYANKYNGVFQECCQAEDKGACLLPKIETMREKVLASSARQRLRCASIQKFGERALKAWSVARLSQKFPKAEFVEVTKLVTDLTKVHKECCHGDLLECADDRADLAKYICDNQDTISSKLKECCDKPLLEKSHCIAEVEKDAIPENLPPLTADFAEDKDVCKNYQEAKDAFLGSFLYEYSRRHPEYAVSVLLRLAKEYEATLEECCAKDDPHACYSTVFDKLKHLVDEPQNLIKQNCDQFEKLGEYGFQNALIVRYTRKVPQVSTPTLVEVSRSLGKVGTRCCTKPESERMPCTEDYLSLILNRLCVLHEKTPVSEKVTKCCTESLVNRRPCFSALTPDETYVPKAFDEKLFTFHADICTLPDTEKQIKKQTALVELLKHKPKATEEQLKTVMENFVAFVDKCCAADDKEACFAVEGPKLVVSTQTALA
Chain of Paired box protein Pax-8 (Q06710 whole entry): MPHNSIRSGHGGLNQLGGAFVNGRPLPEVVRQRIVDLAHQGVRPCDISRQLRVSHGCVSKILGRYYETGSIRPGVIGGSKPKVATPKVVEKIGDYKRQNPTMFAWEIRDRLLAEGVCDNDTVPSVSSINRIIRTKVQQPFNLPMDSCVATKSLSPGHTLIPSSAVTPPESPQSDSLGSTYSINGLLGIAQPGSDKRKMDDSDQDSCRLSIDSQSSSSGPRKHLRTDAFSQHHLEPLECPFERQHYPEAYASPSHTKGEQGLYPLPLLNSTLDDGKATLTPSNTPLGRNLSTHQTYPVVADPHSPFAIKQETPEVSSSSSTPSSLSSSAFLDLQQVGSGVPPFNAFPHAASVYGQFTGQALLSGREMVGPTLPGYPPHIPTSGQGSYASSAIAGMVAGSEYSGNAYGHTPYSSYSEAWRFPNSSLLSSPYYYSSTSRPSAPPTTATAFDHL

Compound: Cc1onc(-c2ccccc2)c1C(=O)NN=Cc1cc(Cl)cc(Cl)c1O
- IC50 (Albumin): > 94 µM (inactive)

Compound: Cc1cccc(-c2ccc([C@H]3[C@@H](CO)N4CCCCN(S(=O)(=O)c5cccc(C)c5)C[C@@H]34)cc2)c1
- AC50 [1]: > 70 µM (inactive)
- AC50 (Paired box protein Pax-8): 8.23 µM (active)

Compound: COc1cc2ccccc2cc1C(=O)NNC(=O)c1ccccc1O
- EC50 [2]: 16.1 µM (active)
- EC50 (cells [3]): > 350 µM (not active)
- IC50 (H9c2): > 79 µM (inactive)
- EC50 (cells [4]): > 350 µM (not active)
- EC50 [5]: > 150 µM (inactive)
- EC50 [6]: > 60 µM (not active)
- EC50 [7]: 14.9 µM (active)
- EC50 [8]: > 60 µM (not active)
- IC50 (Albumin): > 94.2 µM (inactive)
- EC50 [9]: > 60 µM (not active)
- EC50 [10]: > 38 µM (not active)

Compound: Oc1ccc(/C=N/Nc2nn3cnnc3c3ccccc23)cc1
- CC50 [11]: 100 µM (active)
- IC50 [12]: 22.2 µM (active)

Compound: Cc1cccc(-c2noc(-c3ccc4c(c3)OCO4)n2)c1
- AC50 [13]: 9.54 µM (active)
- AC50 [14]: 12.1 µM (active)
- AC50 [15]: > 52 µM (inactive)
- AC50 [16]: > 52 µM (inactive)
- AC50 [17]: > 52 µM (inactive)

Compound: CCOC(=O)c1cccc(NC(=O)Cn2c(CC(=O)NC)nc3ccccc32)c1
- EC50 [18]: > 260 µM (inactive)
- IC50 [19]: 2.05 µM (active)
- IC50 [20]: 83.3 µM (inactive)
- IC50 [21]: 6.01 µM (active)

Compound: Cc1ccsc1C(=O)OCc1csc(-c2ccccc2)n1
- EC50 [22]: > 67.5 µM (inactive)
- EC50 (cells [23]): > 67.5 µM (inactive)

Compound: COc1ccc(-c2nnc(SC(C(=O)c3c[nH]c4ccccc34)c3ccccc3)n2N)cc1OC (centres undefined)
- EC50 [24]: 8.65 µM (active)
- IC50 [25]: > 100 µM (active)
- EC50 (Streptokinase A): > 150 µM (not active)
- EC50 (Streptococcus): 102 µM (active)
- IC50 [19]: 99 µM (inactive)
- IC50 [20]: 83.3 µM (inactive)
- IC50 [21]: 33.8 µM (inactive)

Compound: Cc1cccc(-c2ccc([C@H]3[C@@H](CO)N4CCCCN(C(=O)c5ccc6c(c5)OCO6)C[C@@H]34)cc2)c1
- AC50 [13]: 14.2 µM (active)
- AC50 [14]: 15.4 µM (active)
- AC50 [15]: 15.6 µM (active)
- AC50 [16]: 26.4 µM (active)

Compound: Cc1sc(NC(=O)c2ccc(Cl)s2)c(C(N)=O)c1C
- EC50 [22]: > 67.5 µM (inactive)
- EC50 (cells [23]): > 67.5 µM (inactive)

Compound: Cc1cc(C)cc(NC(=O)Nc2ccc(N3CCCCC3)cc2)c1
- AC50 [26]: 26 µM (active)

Compound: Cn1c(=O)c(/C=C/c2ccccc2)nc2ccccc21
- EC50 [22]: > 67.6 µM (inactive)
- EC50 [27]: 0.174 µM (active)
- EC50 (cells [23]): > 67.6 µM (inactive)
